PubChem BioAssay AID2252 (Southern Research Specialized Biocontainment Screening …, 2010)
Several values for one entry are separate records, joined by “and”; a condition that tells them apart may be missing. Identical values can stand only once.

Each molecule was assayed on THP-1 viability, CellTiter-Glo luminescence, 72 h (assay: PubChem AID 2252).

| SMILES | EC50 |
| --- | --- |
| CCCCOc1ccc(NC2=NC3(CCCC3)N=C(N)N2)cc1 | 17.4 µM |
| OCCNCc1cc(Br)ccc1OCc1ccc(Cl)cc1 | 15.9 µM |
| CCN(CCNCC(O)COc1ccccc1C(C)C)c1cccc(C)c1 (centres undefined) | 11 µM |
| Clc1ccc(-c2cc(C3CCNCC3)[nH]n2)c(Cl)c1 | 24.3 µM |
| CN(C)CC/C=C1/c2cc(F)ccc2Sc2ccc(Cl)cc21 | 20.5 µM |
| CC(C)C1N=C(c2ccc3c(c2)OCO3)CC(c2ccccc2O)N1 (centres undefined) | 43.3 µM |
| O=[N+]([O-])c1cc(Cl)c2cccnc2c1O | 28.7 µM |
| CCCCOc1ccc(Br)cc1CSC(=N)N | 5.93 µM |
| NC1=NC2=C(CCCC2)C2(CCCCC2)S1 | 37.4 µM |
| COc1ccc(/C=N/Nc2cc(C)nc3ccc(Br)cc23)cc1 | 4.17 µM |
| Cc1nc2c(=O)n(C)c(=O)nc-2n(C)n1 | 2.17 µM |
| C#CCOCCOCCOCCNc1nc(N2CCN(C(=O)CCCCCCCCCCNC(=O)[C@H](CCCCN)n3cc(C[C@@H](C)CC)nn3)CC2)nc(N2CCN(C(=O)CCCCCCCCCCNC(=O)[C@H](CCCN=C(N)N)n3cc(C[C@@H](C)CC)nn3)CC2)n1 | 5.23 µM |
| CCN(CC)C(=S)SSC(=S)N(CC)CC | 21.9 µM |
| CC1=NN(c2nc3ccccc3[nH]2)C(=O)C1Cc1ccccc1 (centres undefined) | 1.85 µM |
| CCN(CC)c1ccc(CNc2nc3ccccc3n2CCN2CCCCC2)cc1 | 16.5 µM |
| Cc1ccc(Nc2cc(C)c3c(O)cccc3n2)cc1C | 23.8 µM |
| Cc1ccc(O)c(Nc2c3ccccc3nc3ccccc23)c1 | 14.2 µM |
| CCOC(=O)N1CCN(C(=S)NC(=O)c2ccc(Br)cc2)CC1 | < 0.1 µM |
| CCCCCCCCCCCCCCCC[n+]1ccc(/C=N/O)cc1 | 0.3 µM |
| Oc1ccc(Cl)cc1Cc1cc(Cl)ccc1O | 19.5 µM |
| Oc1c(Cl)cc(CN2CCCCC2)c2cccnc12 | 0.71 µM |
| O=C(N/N=C/c1ccc([N+](=O)[O-])s1)c1cccnc1 | 14.9 µM |
| CCCOc1ccc(C(=O)NNC(=S)NC(C)=O)cc1 | 5.29 µM |
| CCc1nc(N)nc(N)c1-c1ccc(Cl)cc1 | 10.5 µM |
| OC(CNCCc1ccc(Cl)cc1)COc1cc(Cl)ccc1Cl (centres undefined) | 29.8 µM |
| Cc1ccc2c(c1)N/C(=C(\C=C(/Cl)[N+](=O)[O-])[N+](=O)[O-])N2 | 26.8 µM |
| CC1CCN(CCCNC(=O)c2ccc3c(=O)n(Cc4ccc(Cl)cc4)c(=S)[nH]c3c2)CC1 | 16.8 µM |

| SMILES | EC50 |
| --- | --- |
| c1ccc2c(SCc3cn4ccccc4n3)nncc2c1 | < 0.1 µM |
| Cc1cc(/C=C\c2ccc3cc(N(C)C)ccc3[n+]2C)c(C)n1-c1ccccc1 | 4.95 µM |
| Cc1ccc(Nc2nc(NCCO)c3ccccc3n2)cc1C | 3.06 µM |
| CCCCOc1ccc(C(=O)NNC(=S)NC(=O)CC)cc1 | 3.29 µM |
| COC(=O)C(C)NC(=S)N1CCN(c2c(F)cc3c(=O)c(C(=O)O)cn(C4CC4)c3c2OC)CC1C (centres undefined) | 36.9 µM |
| Cc1ccc(-c2csc(NC(=O)C[n+]3cc(-c4ccccc4)n4c3CCC4)n2)cc1 | 8.47 µM |
| Cc1nc(N)nc(N)c1CCCc1ccc(Cl)c(Cl)c1 | 5.79 µM |
| Cc1cc(=O)oc2ccc(OCC(=O)N3CCC(C)CC3)cc12 | < 0.1 µM |
| COc1cc(/C=N/N=C(N)N)ccc1OCc1ccc(Cl)cc1 | 7.26 µM |
| CCOc1ccc(/C=N/NC(=O)c2[nH]ncc2Br)c(O)c1 | 1.47 µM |
| COc1cccc(/C=N/NC(=O)c2ccoc2C)c1O | 4.3 µM |
| CC(=O)NC(c1ccc2ccccc2c1)c1ccc2cccnc2c1O (centres undefined) | 0.36 µM |
| Nc1ncn([C@@H]2O[C@H](CO)[C@@H](O)[C@H]2O)c(=O)n1 | 19.7 µM |
| CC[n+]1c(/C=C/C=C/c2ccc(N(C)C)cc2)sc2ccccc21 | 1.43 µM |
| N=c1c2c(n(Cc3ccc(Cl)c(Cl)c3)c3c1CCC3)CCCC2 | 4.66 µM |
| CN(C)c1ccc(O)c2c1CC1CC3C(N(C)C)C(=O)C(C(N)=O)=C(O)[C@@]3(O)C(=O)C1=C2O (some centres undefined) | 33.7 µM |
| CN(C)CCCN1c2ccccc2Sc2ccc(Cl)cc21 | 5.64 µM and 12.4 µM |
| CCCCOc1ccc(CSC(=N)N)cc1Cl | 10.9 µM |
| C/C(=N\Nc1ccc2nncn2n1)c1ccccn1 | 6.13 µM |
| O=C(C[n+]1cc(Br)cc2ccccc21)c1ccc(Cl)cc1 | 44 µM |
| COc1ccc(C(=O)NC(=S)NNC(=O)CCc2ccccc2)cc1 | 6.09 µM |
| CC(NCC(O)COCCC12CC3CC(CC(C3)C1)C2)c1ccccc1 (centres undefined) | 9.86 µM |
| COc1ccc(C(=O)CSc2nnc(-c3cnccn3)n2Cc2ccco2)cc1 | < 0.1 µM |
| CCOc1ccc(Nc2c3ccccc3nc3ccccc23)cc1 | 2.49 µM |
| CCCCCCCSc1cc(OC)c(CCN(C)C)cc1OC | 9.51 µM |
| COc1ccc(Nc2c3c(nc4ccccc24)CCC3)cc1 | 3.42 µM |
| COc1cc2c3cc1Oc1cc(ccc1O)C[C@@H]1c4c(cc(OC)c(O)c4Oc4ccc(cc4)C[C@H]3N(C)CC2)CCN1C | 8.8 µM |
